What all share (test): DTP human tumour cell line panel, 48 h
Test [1] concerns LOX IMVI melanoma.
Test [2] concerns NCI-H226 lung.
Test [3] concerns NCI/ADR-RES ovarian.
Test [4] relates to OVCAR-3 ovarian.
For test [5], the system named is RPMI-8226 leukemia.
Test [6] has as its system SF-539 CNS.
The subject of test [7] is SK-MEL-2 melanoma.
Test [8] has as its system SW-620 colon.

SMILES strings stand for the structures.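 Where inhibition never reached the appropriate level, the endpoint shown equals the highest concentration tested. Otherwise, values were interpolated linearly from a five-concentration, 48-hour dose response in 96-well plates. Abbreviation: GI50, concentration required for 50% inhibition of growth. Definition used: TGI = concentration required for complete inhibition of growth.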

For orientation: GI50 means the concentration that inhibits growth by half. The TGI is the concentration giving total growth inhibition. A higher TGI goes with lower sensitivity of the cells. Regarding `O=C1Nc2ccccc2SC1C1SC(=S)N(Cc2ccccc2)C1=O` (configuration not stated), the GI50 in test [1] was 2.08 µM; in test [2], 17 µM; in test [3], 23.6 µM; in test [4], 2.37 µM; in test [5], 0.488 µM; in test [6] it was 3.79 µM. Besides, the results for the GI50 in test [7] and in test [8] were 18.6 µM and 2.39 µM, respectively. The TGI was determined as 7.78 µM in test [1]; 35 µM in test [2]; 97.4 µM in test [3]; 6.31 µM in test [4]; 7.39 µM in test [5]; 12.8 µM in test [6]. The results for the TGI in test [7] and in test [8] were 37.4 µM and 13.6 µM, respectively.
Consider `Cc1ccc(NC2=C(Cl)C(=O)c3nc(C)ccc3C2=O)cc1`, for which the GI50 in test [1] is 0.711 µM; in test [2], 1.41 µM; in test [3], 1.73 µM; in test [4], 0.395 µM; in test [5] it was 1.41 µM; in test [6], 1.67 µM. The GI50 is 1.82 µM in test [7] and 1.74 µM in test [8]. Moreover, the TGI in test [1] amounted to 2.22 µM; in test [2], 3.2 µM; in test [3] it was 4.62 µM; in test [4], 1.39 µM; in test [5], 4.2 µM; in test [6] it was 3.11 µM. The TGI in test [7] came out at 3.79 µM; in test [8], 3.7 µM.
With `Nc1cc(C(F)F)c(-c2nc(N3[C@@H]4CC[C@H]3COC4)nc(N3[C@@H]4CC[C@H]3COC4)n2)cn1`, the GI50 in test [1] is 0.336 µM; in test [2], 0.244 µM; in test [3] it was 0.603 µM; in test [4] it was 0.435 µM; in test [5], 0.237 µM; in test [6], 0.297 µM. Besides, the GI50 is 0.388 µM in test [7] and 0.803 µM in test [8]. For the same molecule, the TGI in test [1] is > 48 µM; in test [2], > 21.9 µM; in test [3], 39.5 µM; in test [4] it was > 100 µM; in test [6] it was 3.02 µM; in test [7] it was 4.96 µM. Moreover, the TGI in test [8] was > 100 µM.
As for `O=C(c1cccs1)c1c(C(F)(F)F)n([O-])c2cc(F)c(F)cc2[n+]1=O`, the GI50 in test [1] was 0.747 µM; in test [2], 3.62 µM; in test [3], 2.1 µM; in test [4], 1.66 µM; in test [5], 0.501 µM; in test [6], 0.314 µM. Further, the figures for the GI50 in test [7] and in test [8] were 5.44 µM and 2.45 µM, respectively. In addition, the TGI in test [1] stood at 1.78 µM; in test [2], 7.47 µM; in test [3], 4.77 µM; in test [4], 4.14 µM; in test [5] it was 3.51 µM; in test [6] it was 0.588 µM. For the same molecule, the TGI in test [7] amounted to 8.63 µM; in test [8] it was 4.09 µM.
In the case of `O=C1OC(c2ccc([N+](=O)[O-])cc2)=N/C1=C\c1ccc(O)cc1`, the TGI in test [1], in test [2], in test [4], in test [5], in test [6] and in test [7] was > 100 µM in each case. For the same molecule, the TGI in test [8] is > 100 µM.
Regarding `O=C(N/N=C/c1cc2ccccc2c2ccccc12)c1cc(O)c(O)c(O)c1`, the GI50 in test [1] was 2.38 µM; in test [2] it was 4.47 µM; in test [3], 12.4 µM; in test [5], 7.47 µM; in test [6], 2.17 µM; in test [7] it was 4.25 µM. Moreover, in test [8], the GI50 was 2.96 µM. Further, the TGI in test [1] was 5.98 µM; in test [2], 28.4 µM; in test [3], > 100 µM; in test [5], 46.1 µM; in test [6], 5.8 µM; in test [7], 15.9 µM. Besides, in test [8], the TGI was found to be 12.4 µM.
Regarding `O=C(Nc1ccc(-n2cc(-c3ccncc3)c(-c3ccc(Cl)c(O)c3)n2)cc1)c1cc(Cl)cc(Cl)c1`, the GI50 is 1.19 µM in test [1]; > 100 µM in test [2]; 6.1 µM in test [3]; > 100 µM in test [4]; 0.793 µM in test [5]; 1.88 µM in test [6]. The results for the GI50 in test [7] and in test [8] were 5.24 µM and 3.72 µM, respectively. Further, the TGI in test [1] is 2.62 µM; in test [2], > 100 µM; in test [3], > 100 µM; in test [4] it was > 100 µM; in test [5] it was 4.14 µM; in test [6] it was > 100 µM. The TGI is > 100 µM in test [7] and > 28.8 µM in test [8].
`O=C(O)[C@@H]1C[C@@H](O)CN1`: the TGI in test [1], in test [2], in test [3], in test [4], in test [5] and in test [6] was > 100 µM throughout. Moreover, the TGI in test [7] and in test [8] was > 100 µM each time.
Regarding `C=CC1=C(C)C2=NC1=CC1=NC(=C(CC)/C1=C/O)C=C1C=C3C(=O)C(C(=O)OC)C(=C4NC(=C2)C(C)C4CCC(=O)OC/C=C(\C)CCCC(C)CCCC(C)CCCC(C)C)C3=N1` (configuration not stated) (tested in a mixture with another compound), the TGI in test [1], in test [2], in test [3], in test [4], in test [5] and in test [6] was > 100 µM in each case. Further, the TGI in test [7] and in test [8] was > 100 µM in each case.
With `O=[N+]([O-])c1ccc2nc(N/N=C/c3ccc(O)cc3)sc2c1`, the GI50 was 3.08 µM in test [1]; 17.5 µM in test [2]; 3.86 µM in test [3]; 3.4 µM in test [4]; 2.56 µM in test [5]; 3.2 µM in test [6]. Also, the GI50 in test [7] is 4 µM; in test [8], 4.91 µM. The TGI in test [1] is 10.6 µM; in test [2], 62.8 µM; in test [3] it was > 100 µM; in test [4], 14.6 µM; in test [5] it was 15.8 µM; in test [6] it was > 100 µM. In addition, the figures for the TGI in test [7] and in test [8] were 25.7 µM and 27.2 µM, respectively.
